Data: ChEMBL document CHEMBL4152299, “Synthesis, crystal structure and antimicrobial potential of some fluorinated chalcone-1,2,3-triazole conjugates” (2018)
≈ marks a conversion by molar mass, not a printed value.

Assays:
Type in all cases: functional
Escherichia coli = experiment: Antibacterial activity against Escherichia coli MTCC 16521 after 24 hrs by serial dilution method; details: MTCC 16521, 24 h
Bacillus subtilis = experiment: Antibacterial activity against Bacillus subtilis MTCC 441 after 24 hrs by serial dilution method; details: MTCC 441, 24 h
[1] = test system: Staphylococcus epidermidis; experiment: Antibacterial activity against Staphylococcus epidermidis MTCC 6880 after 24 hrs by serial dilution method; details: MTCC 6880, 24 h
Pseudomonas aeruginosa = experiment: Antibacterial activity against Pseudomonas aeruginosa MTCC 424 after 24 hrs by serial dilution method; details: MTCC 424, 24 h
Candida albicans = experiment: Antifungal activity against Candida albicans MTCC 227 after 48 hrs by serial dilution method; details: MTCC 227, 48 h
Aspergillus niger = experiment: Antifungal activity against Aspergillus niger MTCC 8189 after 120 hrs by serial dilution method; details: MTCC 8189, 120 h

SMILES	MIC (Escherichia coli)	MIC (Bacillus subtilis)	MIC [1]	MIC (Pseudomonas aeruginosa)	MIC (Candida albicans)	MIC (Aspergillus niger)
O=C(/C=C/c1c(OCc2cn(-c3cccc(C(F)(F)F)c3)nn2)ccc2ccccc12)c1ccc(Br)cc1	10.8 µM (≈ 6.25 µg/mL)	21.7 µM (≈ 12.6 µg/mL)	21.7 µM (≈ 12.6 µg/mL)	10.8 µM (≈ 6.25 µg/mL)	21.7 µM (≈ 12.6 µg/mL)	10.8 µM (≈ 6.25 µg/mL)
O=C(/C=C/c1c(OCc2cn(-c3cccc(C(F)(F)F)c3)nn2)ccc2ccccc12)c1ccc([N+](=O)[O-])cc1	23 µM (≈ 12.5 µg/mL)	45.9 µM (≈ 25 µg/mL)	23 µM (≈ 12.5 µg/mL)	23 µM (≈ 12.5 µg/mL)	11.5 µM (≈ 6.26 µg/mL)	45.9 µM (≈ 25 µg/mL)
O=C(O)c1cn(C2CC2)c2cc(N3CCNCC3)c(F)cc2c1=O [CIPROFLOXACIN]	4.7 µM (≈ 1.56 µg/mL)	4.7 µM (≈ 1.56 µg/mL)	4.7 µM (≈ 1.56 µg/mL)	4.7 µM (≈ 1.56 µg/mL)		
C#CCOc1ccc2ccccc2c1/C=C/C(=O)c1ccc([N+](=O)[O-])cc1	70 µM (≈ 25 µg/mL)	140 µM (≈ 50 µg/mL)	70 µM (≈ 25 µg/mL)	70 µM (≈ 25 µg/mL)	70 µM (≈ 25 µg/mL)	70 µM (≈ 25 µg/mL)
COc1ccc(C(=O)/C=C/c2c(OCc3cn(Cc4ccc(F)cc4)nn3)ccc3ccccc23)cc1	3.2 µM (≈ 1.58 µg/mL)	25.3 µM (≈ 12.5 µg/mL)	25.3 µM (≈ 12.5 µg/mL)	25.3 µM (≈ 12.5 µg/mL)	6.3 µM (≈ 3.11 µg/mL)	12.6 µM (≈ 6.22 µg/mL)
O=C(/C=C/c1c(OCc2cn(Cc3ccccc3F)nn2)ccc2ccccc12)c1ccc(Br)cc1	11.6 µM (≈ 6.29 µg/mL)	11.6 µM (≈ 6.29 µg/mL)	11.6 µM (≈ 6.29 µg/mL)	23.2 µM (≈ 12.6 µg/mL)	23.2 µM (≈ 12.6 µg/mL)	23.2 µM (≈ 12.6 µg/mL)
COc1ccc(C(=O)/C=C/c2c(OCc3cn(Cc4ccccc4)nn3)ccc3ccccc23)cc1	26.3 µM (≈ 12.5 µg/mL)	26.3 µM (≈ 12.5 µg/mL)	52.6 µM (≈ 25 µg/mL)	26.3 µM (≈ 12.5 µg/mL)	52.6 µM (≈ 25 µg/mL)	52.6 µM (≈ 25 µg/mL)
O=C(/C=C/c1c(OCc2cn(Cc3ccc(F)cc3)nn2)ccc2ccccc12)c1ccc(Br)cc1	5.8 µM (≈ 3.15 µg/mL)	5.8 µM (≈ 3.15 µg/mL)	5.8 µM (≈ 3.15 µg/mL)	11.6 µM (≈ 6.29 µg/mL)	5.8 µM (≈ 3.15 µg/mL)	5.8 µM (≈ 3.15 µg/mL)
O=C(/C=C/c1c(OCc2cn(Cc3ccccc3F)nn2)ccc2ccccc12)c1ccc([N+](=O)[O-])cc1	6.3 µM (≈ 3.2 µg/mL)	6.3 µM (≈ 3.2 µg/mL)	6.3 µM (≈ 3.2 µg/mL)	24.8 µM (≈ 12.6 µg/mL)	6.3 µM (≈ 3.2 µg/mL)	6.3 µM (≈ 3.2 µg/mL)
COc1ccc(C(=O)/C=C/c2c(OCc3cn(-c4cccc(C(F)(F)F)c4)nn3)ccc3ccccc23)cc1	11.8 µM (≈ 6.25 µg/mL)	23.6 µM (≈ 12.5 µg/mL)	23.6 µM (≈ 12.5 µg/mL)	23.6 µM (≈ 12.5 µg/mL)	11.8 µM (≈ 6.25 µg/mL)	11.8 µM (≈ 6.25 µg/mL)
COc1ccc(C(=O)/C=C/c2c(OCc3cn(Cc4ccccc4F)nn3)ccc3ccccc23)cc1	6.3 µM (≈ 3.11 µg/mL)	25.3 µM (≈ 12.5 µg/mL)	25.3 µM (≈ 12.5 µg/mL)	12.6 µM (≈ 6.22 µg/mL)	6.3 µM (≈ 3.11 µg/mL)	25.3 µM (≈ 12.5 µg/mL)
OC(Cn1cncn1)(Cn1cncn1)c1ccc(F)cc1F [FLUCONAZOLE]					10.2 µM (≈ 3.12 µg/mL)	5.1 µM (≈ 1.56 µg/mL)
O=C(/C=C/c1c(OCc2cn(Cc3cccc(F)c3)nn2)ccc2ccccc12)c1ccc([N+](=O)[O-])cc1	6.3 µM (≈ 3.2 µg/mL)	12.6 µM (≈ 6.41 µg/mL)	6.3 µM (≈ 3.2 µg/mL)	6.3 µM (≈ 3.2 µg/mL)	6.3 µM (≈ 3.2 µg/mL)	6.3 µM (≈ 3.2 µg/mL)
O=C(/C=C/c1c(OCc2cn(Cc3ccc(F)cc3)nn2)ccc2ccccc12)c1ccc([N+](=O)[O-])cc1	3.2 µM (≈ 1.63 µg/mL)	6.3 µM (≈ 3.2 µg/mL)	3.2 µM (≈ 1.63 µg/mL)	6.3 µM (≈ 3.2 µg/mL)	3.2 µM (≈ 1.63 µg/mL)	3.2 µM (≈ 1.63 µg/mL)
O=C(/C=C/c1c(OCc2cn(-c3ccc(F)cc3)nn2)ccc2ccccc12)c1ccc(Br)cc1	23.7 µM (≈ 12.5 µg/mL)	47.4 µM (≈ 25 µg/mL)	47.4 µM (≈ 25 µg/mL)	47.4 µM (≈ 25 µg/mL)	47.4 µM (≈ 25 µg/mL)	23.7 µM (≈ 12.5 µg/mL)
COc1ccc(C(=O)/C=C/c2c(OCc3cn(Cc4cccc(F)c4)nn3)ccc3ccccc23)cc1	12.6 µM (≈ 6.22 µg/mL)	25.3 µM (≈ 12.5 µg/mL)	25.3 µM (≈ 12.5 µg/mL)	25.3 µM (≈ 12.5 µg/mL)	12.6 µM (≈ 6.22 µg/mL)	12.6 µM (≈ 6.22 µg/mL)
C#CCOc1ccc2ccccc2c1/C=C/C(=O)c1ccc(Br)cc1	63.7 µM (≈ 24.9 µg/mL)	63.7 µM (≈ 24.9 µg/mL)	127 µM (≈ 49.8 µg/mL)	63.7 µM (≈ 24.9 µg/mL)	63.7 µM (≈ 24.9 µg/mL)	127 µM (≈ 49.8 µg/mL)
C#CCOc1ccc2ccccc2c1/C=C/C(=O)c1ccc(OC)cc1	73.1 µM (≈ 25 µg/mL)	73.1 µM (≈ 25 µg/mL)	146 µM (≈ 50.1 µg/mL)	73.1 µM (≈ 25 µg/mL)	73.1 µM (≈ 25 µg/mL)	73.1 µM (≈ 25 µg/mL)
COc1ccc(C(=O)/C=C/c2c(OCc3cn(-c4ccc(F)cc4)nn3)ccc3ccccc23)cc1	13 µM (≈ 6.23 µg/mL)	26.1 µM (≈ 12.5 µg/mL)	52.2 µM (≈ 25 µg/mL)	26.1 µM (≈ 12.5 µg/mL)	13 µM (≈ 6.23 µg/mL)	52.2 µM (≈ 25 µg/mL)
O=C(/C=C/c1c(OCc2cn(Cc3ccccc3)nn2)ccc2ccccc12)c1ccc(Br)cc1	11.9 µM (≈ 6.24 µg/mL)	23.9 µM (≈ 12.5 µg/mL)	11.9 µM (≈ 6.24 µg/mL)	11.9 µM (≈ 6.24 µg/mL)	11.9 µM (≈ 6.24 µg/mL)	11.9 µM (≈ 6.24 µg/mL)
O=C(/C=C/c1c(OCc2cn(Cc3ccccc3)nn2)ccc2ccccc12)c1ccc([N+](=O)[O-])cc1	12.8 µM (≈ 6.28 µg/mL)	6.3 µM (≈ 3.09 µg/mL)	6.3 µM (≈ 3.09 µg/mL)	12.8 µM (≈ 6.28 µg/mL)	12.8 µM (≈ 6.28 µg/mL)	6.3 µM (≈ 3.09 µg/mL)
O=C(/C=C/c1c(OCc2cn(-c3ccc(F)cc3)nn2)ccc2ccccc12)c1ccc([N+](=O)[O-])cc1	25.3 µM (≈ 12.5 µg/mL)	12.6 µM (≈ 6.23 µg/mL)	25.3 µM (≈ 12.5 µg/mL)	25.3 µM (≈ 12.5 µg/mL)	12.6 µM (≈ 6.23 µg/mL)	12.6 µM (≈ 6.23 µg/mL)
O=C(/C=C/c1c(OCc2cn(Cc3cccc(F)c3)nn2)ccc2ccccc12)c1ccc(Br)cc1	11.6 µM (≈ 6.29 µg/mL)	11.6 µM (≈ 6.29 µg/mL)	23.2 µM (≈ 12.6 µg/mL)	23.2 µM (≈ 12.6 µg/mL)	23.2 µM (≈ 12.6 µg/mL)	23.2 µM (≈ 12.6 µg/mL)
